Source: patent publication US20050256188A1, “Formulations of anthraquinone derivatives” (priority 2002, published 2005)
One block for each molecule: values may come before it. Where a SMILES comes first, the peptide text is derived from it.

What was measured:
[1] = pH of AQ4N salts in aqueous solution; type: physicochemical; settings: 1.4 mM in water; in Table 4 the label is the acid whose AQ4N disalt was measured
Method: Stock solutions of individual AQ4N salts were prepared by transferring about 1 mg, accurately weighed, and diluting with water to obtain solutions of 1.4 mM. The solution was vortexed for 3 min using a Fisons WhirlMixer™ (Loughborough, Leicestershire, UK). All AQ4N salt solutions were prepared on the same day as determination of the pH value of the solutions, which was done using a digital pH meter (calibrated at 21±1° C. with standard buffers of pH 7.00 and 4.00 from BDH (UK).

[2] = Degradation of AQ4N dihydrochloride in solution at 40° C.: accumulation of AQMN (HPLC); type: physicochemical; settings: for AQMN increase per day: 14 days, % w.r.t. AQ4N
Method: The degradation of AQ4N was investigated using 5 mg/ml solutions of AQ4N at a pH of 2.4, 4.5 and 6.8, which equated to water, 20 mM sodium acetate buffer and 20 mM sodium orthophosphate buffer, respectively. The primary degradation pathway of AQ4N is its conversion to AQMN. The increase in AQMN concentration in 5 mg/ml solutions incubated at 40° C. over an intermediate time period (14 days) is shown in FIG. 3.
The effect of pH on the stability of AQ4N was determined by investigating AQ4N degradation in different solutions. The solutions chosen were again distilled water, 20 mM sodium acetate buffer (pH=4) and 20 mM sodium phosphate buffer (pH=7). After preparation of the 5 mg/ml AQ4N buffered solutions the pH was corrected to the required pH of the buffer. The final pHs were 2.4, 4.5 and 6.8 for the distilled water, 20 mM sodium acetate buffer and 20 mM sodium phosphate buffer, respectively. The samples were incubated at 40° C. and sampled at regular intervals. Assay was carried out by sample dilution followed by HPLC analysis.

[3] = cited from earlier work; for pKa at 25° C. (pKa1): Table 1, pKa1; for pKa at 25° C.: Table 1, pKa index not given; for pKa1 of acid used to prepare AQ4N disalt: value of the free acid, from IUPAC Handbook of Pharmaceutical Salts

measured pH of AQ4N di-salt solutions (1.4 mM) [1]: 3.3
Molecule: O=C(O)CC(O)(CC(=O)O)C(=O)O [Citric, citric acid]

AQMN increase per day ([2]; 20 mM sodium acetate buffer, pH 4.5, 5 mg/ml solution): 0.19%
AQMN increase per day ([2]; 20 mM sodium orthophosphate buffer (PO4), pH 6.8, 5 mg/ml solution): 0.02%
AQMN increase per day ([2]; H2O, pH 2.4, 5 mg/ml solution): 0.84%
AQMN increase per month ([2]; phosphate buffer, 5 mg/ml solution, 63 days): 0.6%
measured pH of AQ4N di-salt solutions (1.4 mM) [1]: 2.4
Molecule: C[N+](C)([O-])CCNc1ccc(NCC[N+](C)(C)[O-])c2c1C(=O)c1c(O)ccc(O)c1C2=O.Cl.Cl [AQ4N dihydrochloride]

measured pH of AQ4N di-salt solutions (1.4 mM) [1]: 2.8
Molecule: O=C(O)CC(=O)O [Malonic, malonic acid]

Molecule: C=C(CC(=O)O)C(=O)O [Itaconic]
pKa at 25° C. (pKa1) [3]: 3.84 (pKa1)

Molecule: Cl [Hydrochloric, hydrochloric acid]
measured pH of AQ4N di-salt solutions (1.4 mM) [1]: 2.4

Molecule: CC(CC(=O)O)(CC(=O)O)C(=O)O [2-Methylpropane-1,2,3-triscarboxylic]
pKa at 25° C. (pKa1) [3]: 3.53 (pKa1)

measured pH of AQ4N di-salt solutions (1.4 mM) [1]: 3.8
Molecule: O=C(O)CCCCCC(=O)O [Pimelic, pimelic acid]
pKa at 25° C. [3]: 4.48
pKa1 of acid used to prepare AQ4N disalt [3]: 4.48

Molecule: O=C(O)c1ccccc1C(=O)O [Phthalic]
pKa at 25° C. [3]: 2.90

Molecule: O=C(O)c1cc(C(=O)O)cc(C(=O)O)c1 [Benzene-1,3,5-tricarboxylic (trimesic)]
pKa at 25° C. (pKa1) [3]: 3.16 (pKa1)

measured pH of AQ4N di-salt solutions (1.4 mM) [1]: 3.5
Molecule: CC(O)C(=O)O (racemic) [Lactic, Lactic acid]

measured pH of AQ4N di-salt solutions (1.4 mM) [1]: 3.8
Molecule: AQ4N di-pimelate [Example 13]

Molecule: AQ4N di-benzenesulfonate [Example 6]
measured pH of AQ4N di-salt solutions (1.4 mM) [1]: 2.4

Molecule: OCCN(CCO)C(CO)(CO)CO [Bis(2-hydroxyethyl)iminotris(hydroxymethyl)methane]
pKa at 25° C. [3]: 6.46

Molecule: O=C1CC(=O)NC(=O)N1 [Barbituric]
pKa at 25° C. [3]: 3.98

Molecule: O=C(O)CC(O)C(=O)O (centres unmarked) [Malic]
pKa at 25° C. (pKa1) [3]: 3.40 (pKa1)
pKa at 25° C. (pKa2) ([3]; Table 1, pKa2): 5.05 (pKa2)

Molecule: O=C(O)c1cc(C(=O)O)c(C(=O)O)c(C(=O)O)c1C(=O)O [Benzenepentacarboxylic]
pKa at 25° C. (pKa1) [3]: 2.34 (pKa1)

measured pH of AQ4N di-salt solutions (1.4 mM) [1]: 3.8
Molecule: AQ4N di-acetate [Example 14]

Molecule: COc1cc2c(cc1OC)[C@@]13CCN4CC5=CCO[C@H]6CC(=O)N2[C@H]1[C@H]6[C@H]5C[C@H]43.O.O.O.O [Brucine tetrahydrate]
pKa at 25° C. (pKa1) [3]: 2.30 (pKa1)

measured pH of AQ4N di-salt solutions (1.4 mM) [1]: 2.8
Molecule: O=C(O)C(O)C(O)C(=O)O (centres unmarked) [Tartaric, tartaric acid]

Molecule: NCC(=O)NCC(=O)O [Glycylglycine] (H-Gly-Gly-OH)
pKa at 25° C. [3]: 3.06

Molecule: O=C(O)C(Cl)Cl [Dichloroacetic, dichloroacetic acid]
measured pH of AQ4N di-salt solutions (1.4 mM) [1]: 2.4

Molecule: C/C=C/C=C/C(=O)O [Sorbic]
pKa at 25° C. [3]: 4.76

Molecule: O=C(O)c1cccc(C(=O)O)c1C(=O)O [Benzene-1,2,3-tricarboxylic (hemimellitic)]
pKa at 25° C. (pKa1) [3]: 2.98 (pKa1)

Molecule: AQ4N di-dichloroacetate [Example 7]
measured pH of AQ4N di-salt solutions (1.4 mM) [1]: 2.5

measured pH of AQ4N di-salt solutions (1.4 mM) [1]: 2.5
Molecule: O=S(=O)(O)c1ccccc1 [Benzenesulfonic, benzenesulfonic acid]
pKa1 of acid used to prepare AQ4N disalt [3]: −2.5

measured pH of AQ4N di-salt solutions (1.4 mM) [1]: 2.6
Molecule: O=C(O)/C=C\C(=O)O [Maleic, maleic acid]

measured pH of AQ4N di-salt solutions (1.4 mM) [1]: 3.8
Molecule: CC(=O)O [Acetic, acetic acid]
